US20240101531A1, “PYRIDINAMINE DERIVATIVES AND THEIR USE AS POTASSIUM CHANNEL MODULATORS” (Xenon Pharmaceuticals Inc., priority 2022, published 2024)
Counter-ions that a name gives are not always drawn.

biological target: human KV7.2/KV7.3 (Homo sapiens (Human), UniProt O43525+O43526); experiment: Potassium flux assay (IPG-2 AM dye); assay type: cell-based; settings: TREX HEK 293 or HEK 293 cells expressing human KV7.2/KV7.3; arithmetic mean values
Procedure, shortened: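 EC50 from 16 concentrations (2-fold dilutions, top 30 μM), scaled between DMSO baseline and a known KV7.x modulator maximum. Signal is IPG-2 AM fluorescence (ex 530/em 558 nm) after 10 mM KCl challenge buffer addition, following 20 min room-temperature compound exposure of HEK 293 or TREX HEK 293 cells stably expressing human KV7.2/KV7.3.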

Compound	EC50
O[C@@H]1CCC[C@H](Oc2ccc3c(Nc4ccc(Cl)nc4)nccc3c2)C1 [Example 346, (1R,3S)-3-((1-((6-chloropyridin-3-yl)amino)isoquinolin-6-yl)oxy)cyclohexan-1-ol]	< 1 µM
O[C@H]1CCC[C@@H](Oc2ccc3c(Nc4ccc(Cl)nc4)nccc3c2)C1 [Example 347, (1 S,3R)-3-((1-((6-chloropyridin-3-yl)amino)isoquinolin-6-yl)oxy)cyclohexan-1-ol]	< 1 µM
N#CC1(COc2ccc3c(Nc4cnc(Cl)nc4)nccc3c2)CC12CC2 (stereo not shown) [Example 349, 1-(((1-((2-chloropyrimidin-5-yl)amino)isoquinolin-6-yl)oxy)methyl)spiro[2.2]pentane-1-carbonitrile]	< 1 µM
O[C@H]1CC[C@H](Oc2ccc3c(Nc4ccc(Cl)nc4)nccc3c2)CC1 [Example 350, (1r,4r)-4-((1-((6-chloropyridin-3-yl)amino)isoquinolin-6-yl)oxy)cyclohexan-1-ol]	1 to 10 µM
CC1(C)CC1(C#N)COc1ccc2c(Nc3cnc(Cl)nc3)nccc2c1 (stereo not shown) [Example 351, 1-(((1-((2-chloropyrimidin-5-yl)amino)isoquinolin-6-yl)oxy)methyl)-2,2-dimethylcyclopropane-1-carbonitrile]	< 1 µM
Cc1c(COc2ccc3c(Nc4cnc(Cl)nc4)nccc3c2)cnn1C [Example 352, N-(2-chloropyrimidin-5-yl)-6-((1,5-dimethyl-1H-pyrazol-4-yl)methoxy)isoquinolin-1-amine]	< 1 µM
Cc1ncc(Nc2nccc3cc(OCc4cnn(C)c4C)ccc23)cn1 [Example 353, 6-((1,5-dimethyl-1H-pyrazol-4-yl)methoxy)-N-(2-methylpyrimidin-5-yl)isoquinolin-1-amine]	< 1 µM
CC(F)(F)C1(COc2ccc3c(Nc4cnc(Cl)nc4)nccc3c2)COC1 [Example 355, N-(2-chloropyrimidin-5-yl)-6-((3-(1,1-difluoroethyl)oxetan-3-yl)methoxy)isoquinolin-1-amine]	< 1 µM
CC(C)(C)OC(=O)N[C@H]1CCC[C@@H](Oc2ccc3c(Nc4cnc(Cl)nc4)nccc3c2)C1 [Example 356, tert-butyl ((1S,3R)-3-((1-((2-chloropyrimidin-5-yl)amino)isoquinolin-6-yl)oxy)cyclohexyl)carbamate]	< 1 µM
O[C@H]1CCC[C@@H](Oc2ccc3c(Nc4cnc(Cl)nc4)nccc3c2)C1 [Example 359, (1 S,3R)-3-((1-((2-chloropyrimidin-5-yl)amino)isoquinolin-6-yl)oxy)cyclohexan-1-ol]	< 1 µM
NC(=O)C1(COc2ccc3c(Nc4cnc(Cl)nc4)nccc3c2)CC1 [Example 361, 1-(((1-((2-chloropyrimidin-5-yl)amino)isoquinolin-6-yl)oxy)methyl)cyclopropane-1-carboxamide]	< 1 µM
Clc1ccc(Nc2nccc3cc(OCC4(OCc5ccncc5)CC4)ccc23)cn1 [Example 362, N-(6-chloropyridin-3-yl)-6-((1-(pyridin-4-ylmethoxy)cyclopropyl)methoxy)isoquinolin-1-amine]	1 to 10 µM
FC1(COc2ccc3c(Nc4ccc(Cl)nc4)nccc3c2)CCOC1 (stereo not shown) [Example 363, N-(6-chloropyridin-3-yl)-6-((3-fluorotetrahydrofuran-3-yl)methoxy)isoquinolin-1-amine]	< 1 µM
Clc1ccc(Nc2nccc3cc(OCc4cnoc4)ccc23)cn1 [Example 368, N-(6-chloropyridin-3-yl)-6-(isoxazol-4-ylmethoxy)isoquinolin-1-amine]	< 1 µM
N#CC1(COc2ccc3c(Nc4cnc(Cl)nc4)nccc3c2)CCC1 [Example 369, 1-(((1-((2-chloropyrimidin-5-yl)amino)isoquinolin-6-yl)oxy)methyl)cyclobutane-1-carbonitrile]	< 1 µM
COc1ncc(Nc2nccc3cc(OCC4(C)COC4)ccc23)cn1 [Example 370, N-(2-methoxypyrimidin-5-yl)-6-((3-methyloxetan-3-yl)methoxy)isoquinolin-1-amine]	< 1 µM
COc1ncc(Nc2nccc3cc(OCc4cnn(C)c4)ccc23)cn1 [Example 371, N-(2-methoxypyrimidin-5-yl)-6-((1-methyl-1H-pyrazol-4-yl)methoxy)isoquinolin-1-amine]	< 1 µM
COc1ncc(Nc2nccc3cc(OCC4CC4)ccc23)cn1 [Example 372, 6-(cyclopropylmethoxy)-N-(2-methoxypyrimidin-5-yl)isoquinolin-1-amine]	1 to 10 µM
COc1ncc(Nc2nccc3cc(OCC4(C#N)CC4)ccc23)cn1 [Example 373, 1-(((1-((2-methoxypyrimidin-5-yl)amino)isoquinolin-6-yl)oxy)methyl)cyclopropane-1-carbonitrile]	< 1 µM
Cn1cc(COc2ccc3c(Nc4cnc(Cl)c(O)c4)nccc3c2)cn1 [Example 374, 2-chloro-5-((6-((1-methyl-1H-pyrazol-4-yl)methoxy)isoquinolin-1-yl)amino)pyridin-3-ol]	< 1 µM

Compound	EC50
O=C(N[C@@H]1CCC[C@H](Oc2ccc3c(Nc4cnc(Cl)nc4)nccc3c2)C1)C(F)(F)F [Example 375, N-((1R,3S)-3-((1-((2-chloropyrimidin-5-yl)amino)isoquinolin-6-yl)oxy)cyclohexyl)-2,2,2-trifluoroacetamide]	1 to 10 µM
CC(=O)N[C@@H]1CCC[C@H](Oc2ccc3c(Nc4cnc(Cl)nc4)nccc3c2)C1 [Example 376, N-((1R,3S)-3-((1-((2-chloropyrimidin-5-yl)amino)isoquinolin-6-yl)oxy)cyclohexyl)acetamide]	< 1 µM
O=C(N[C@H]1CCC[C@@H](Oc2ccc3c(Nc4cnc(Cl)nc4)nccc3c2)C1)C(F)(F)F [Example 377, N-((1 S,3R)-3-((1-((2-chloropyrimidin-5-yl)amino)isoquinolin-6-yl)oxy)cyclohexyl)-2,2,2-trifluoroacetamide]	< 1 µM
CC(=O)N[C@H]1CCC[C@@H](Oc2ccc3c(Nc4cnc(Cl)nc4)nccc3c2)C1 [Example 378, N-((1 S,3R)-3-((1-((2-chloropyrimidin-5-yl)amino)isoquinolin-6-yl)oxy)cyclohexyl)acetamide]	< 1 µM
Clc1ccc(Nc2nccc3cc(OCc4cn[nH]c4C4CC4)ccc23)cn1 [Example 379, N-(6-chloropyridin-3-yl)-6-((5-cyclopropyl-1H-pyrazol-4-yl)methoxy)isoquinolin-1-amine]	< 1 µM
FC(F)Cn1cc(COc2ccc3c(Nc4ccc(Cl)nc4)nccc3c2)cn1 [Example 380, N-(6-chloropyridin-3-yl)-6-((1-(2,2-difluoroethyl)-1H-pyrazol-4-yl)methoxy)isoquinolin-1-amine]	< 1 µM
Clc1ncc(Nc2nccc3cc(OCc4cn[nH]c4)ccc23)cn1 [Example 381, 6-((1H-pyrazol-4-yl)methoxy)-N-(2-chloropyrimidin-5-yl)isoquinolin-1-amine]	< 1 µM
Clc1ncc(Nc2nccc3cc(OC[C@H]4COCCO4)ccc23)cn1 [Example 382, (R)-6-((1,4-dioxan-2-yl)methoxy)-N-(2-chloropyrimidin-5-yl)isoquinolin-1-amine]	< 1 µM
Clc1ncc(Nc2nccc3cc(OC[C@@H]4COCCO4)ccc23)cn1 [Example 383, (S)-6-((1,4-dioxan-2-yl)methoxy)-N-(2-chloropyrimidin-5-yl)isoquinolin-1-amine]	< 1 µM
[2H]C([2H])(Oc1ccc2c(Nc3cnc(Cl)nc3)nccc2c1)C1(F)CC1 [Example 384, N-(2-chloropyrimidin-5-yl)-6-((1-fluorocyclopropyl)methoxy-d2)isoquinolin-1-amine]	< 1 µM
CC(Oc1ccc2c(Nc3cnc(Cl)nc3)nccc2c1)C1(C#N)CC1 (stereo not shown) [Example 385, 1-(1-((1-((2-chloropyrimidin-5-yl)amino)isoquinolin-6-yl)oxy)ethyl)cyclopropane-1-carbonitrile]	< 1 µM
[2H]C([2H])(Oc1ccc2c(Nc3ccc(Cl)nc3)nccc2c1)c1cnn(C)c1 [Example 386, N-(6-chloropyridin-3-yl)-6-((1-methyl-1H-pyrazol-4-yl)methoxy-d2)isoquinolin-1-amine]	< 1 µM
Clc1ccc(Nc2nccc3cc(OCCc4ncccn4)ccc23)cn1 [Example 387, N-(6-chloropyridin-3-yl)-6-(2-(pyrimidin-2-yl)ethoxy)isoquinolin-1-amine]	1 to 10 µM
COc1ncc(Nc2nccc3cc(OCc4cn[nH]c4C)ccc23)cn1 [Example 388, N-(2-methoxypyrimidin-5-yl)-6-((5-methyl-1H-pyrazol-4-yl)methoxy)isoquinolin-1-amine]	< 1 µM
Clc1ncc(Nc2nccc3cc(OCCCc4cn[nH]c4)ccc23)cn1 [Example 389, 6-(3-(1H-pyrazol-4-yl)propoxy)-N-(2-chloropyrimidin-5-yl)isoquinolin-1-amine]	< 1 µM
Clc1ncc(Nc2nccc3cc(OCCc4cn[nH]c4)ccc23)cn1 [Example 390, 6-(2-(1H-pyrazol-4-yl)ethoxy)-N-(2-chloropyrimidin-5-yl)isoquinolin-1-amine formate]	< 1 µM
Clc1ccc(Nc2nccc3cc(OCc4cc[nH]n4)ccc23)cn1 [Example 391, 6-((1H-pyrazol-3-yl)methoxy)-N-(6-chloropyridin-3-yl)isoquinolin-1-amine]	1 to 10 µM
Cc1cc(COc2ccc3c(Nc4ccc(Cl)nc4)nccc3c2)n[nH]1 [Example 392, N-(6-chloropyridin-3-yl)-6-((5-methyl-1H-pyrazol-3-yl)methoxy)isoquinolin-1-amine]	1 to 10 µM
Cc1n[nH]cc1COc1ccc2c(Nc3ccc(Cl)nc3)nccc2c1 [Example 393, N-(6-chloropyridin-3-yl)-6-((3-methyl-1H-pyrazol-4-yl)methoxy)isoquinolin-1-amine]	< 1 µM
OC1(COc2ccc3c(Nc4ccc(Cl)nc4)nccc3c2)COC1 [Example 394, 3-(((1-((6-chloropyridin-3-yl)amino)isoquinolin-6-yl)oxy)methyl)oxetan-3-ol]	1 to 10 µM
